Reference: patent US8580577B2, “Method for detecting an analyte in a sample” (Evotec AG, priority 2002, dated 2013)

How the values were obtained:
Cyp1A1 = Cyp1A1 induction by 3-methylcholanthrene, publication of Delescluse et al.; read-out: EC50 roughly estimated from a published Northern Blot; cited from earlier work
CYP1A1 mRNA = assay: Expression of cyp1A1 mRNA in HepG2 cells stimulated with 3-methylcholanthrene (homogeneous bead-based detection oligonucleotide assay); assay type: cell-based; settings: human, 24 h 3-MC, each of three plates, standard deviation 0.05 μM between plates
Description: (§1) Fully automated dual-channel confocal imaging was performed with two independent cooled CCD detectors. Excitation wavelengths were 532 nm and 633 nm, a dichroic beam splitter with 630 nm was used and emission filters were 565/50 nm and 690/40 nm. Laser power was ˜500 μW for both wavelengths, measured at the entrance of the objective. Exposure times were usually in the range of 500-1000 ms.
An image of the sample was acquired at 565 nm by the first CCD detector. This image is called the signal image. At this wavelength, the emission of the detection oligonucleotides is seen. Therefore, in principle one can see the fluorescence emission of both the unbound detection oligonucleotides as well as the detection oligonucleotides bound specifically to the analyte (and consequently via the capture oligonucleotides to the beads). […]
In addition, an image of the sample was acquired at 690 nm by the second CCD detector. […] The fluorescence of the biotinylated red oxazine dye bound to the beads can be seen as a red ring in the reference image (see FIG. 6, left picture). […] This fluorescence intensity is constant and not dependent on the mRNA analyte concentration, see FIG. 5 for illustration. […]
The analysis of the images was performed with image analysis software as follows. […] A mask of these rings corresponding to detected beads was generated from the reference image. […]

c-fos mRNA = assay: Expression of c-fos mRNA in HepG2 cells stimulated with PMA (homogeneous bead-based detection oligonucleotide assay, confocal imaging); assay type: cell-based; settings: for Mean average fluorescence signal intensity/bead pixel: 1 h
Description: as §1
An image of the sample was acquired at 565 nm by the first CCD detector. This image is called the signal image. At this wavelength, the emission of the detection oligonucleotides is seen. Therefore, in principle one can see the fluorescence emission of both the unbound detection oligonucleotides as well as the detection oligonucleotides bound specifically to the analyte (and consequently via the capture oligonucleotides to the beads). To distinguish these signals from each other, the present invention teaches to minimize the emission of the unbound detection oligonucleotides by the use of complementary quencher oligonucleotides. The signal intensity on the beads is linear dependent on the analyte concentration, i.e. in the present example the mRNA concentration.
In addition, an image of the sample was acquired at 690 nm by the second CCD detector. This image is called the reference image. At this wavelength, the emission of the biotinylated red oxazine dye is seen. The fluorescence of the biotinylated red oxazine dye bound to the beads can be seen as a red ring in the reference image (see FIG. 6, left picture). This emission of the dyes bound to the beads can be distinguished from the background emission of the unbound biotinylated red oxazine dye through threshold techniques. This fluorescence intensity is constant and not dependent on the mRNA analyte concentration, see FIG. 5 for illustration. At extremely high mRNA concentrations it may become inversely related to the mRNA concentrations due to limited streptavidin binding sites, however, under physiological conditions and in the experiments presented here this was not the case.
The analysis of the images was performed with image analysis software as follows. Segmentation of the beads from the background was performed on a pixel-basis in the reference image. […] A mask of these rings corresponding to detected beads was generated from the reference image. This mask was applied to the signal image (see FIG. 6, right picture). Areas within the outer boundary of the ring were evaluated for fluorescence intensity stemming from the DO-analyte-CO complex bound to the bead. […] Such local background intensity was then subtracted from the signal intensity.
The final result was the mean fluorescence intensity/bead pixel of the signal image. In general, the intensity was averaged over all correctly detected beads of the image. The beads were usually comprised in wells of micro- or nanotiter plates and in some cases, several images were taken of each well. In this instance, the intensity was averaged over all images of one well.
HepG2 cells were seeded at a density of 2*10^6 cells in 10 ml medium/plate (corresponding to 2*10^5 cells/ml) in nine 10 cm tissue culture plates (Greiner bio-one, catalogue no. 664160) in DMEM-F12 (Gibco, catalogue no. 31331-028) supplemented with 10% FCS (Gibco, catalogue no. 10500-064). The cells were incubated for 48 h at 37° C. with 5% CO2. Then medium was changed to DMEM (Sigma, catalogue no. D 5921) supplemented with 0.1% sterile filtered HSA (Sigma, catalogue no. A 1653) and incubation was continued for 24 h at 37° C. with 5% CO2. Then the cells were incubated with PMA (Phorbol 12-myristate 13-acetate, Sigma, catalogue no. P1585) for 1 h at 37° C. and 5% CO2 to induce expression of c-fos. 500 μl of appropriate PMA dilutions in DMEM with 0.1% HSA were added, for final concentrations refer to table 4 below.
One control plate was used for cell counting, the final cell number was 1.5*10^7 cells/plate. […]

Structure (SMILES)	EC50 (Cyp1A1) [µM]	EC50 at 24 h (CYP1A1 mRNA) [µM]	average expression rate of c-fos mRNA (c-fos mRNA; 100 nM PMA, 7.2*10^4 lysed cells per well) [copies mRNA/cell]	c-fos mRNA copy number per well (c-fos mRNA; 100 nM PMA, 24 μl of lysate, from the calibration of example 1a)	EC50 (c-fos mRNA; HepG2 cells, 1 h PMA, read-out: EC50 of increase in c-fos expression) [µM]	Mean average fluorescence signal intensity/bead pixel (c-fos mRNA; HepG2 cells, PMA 0.5 nM)	Mean average fluorescence signal intensity/bead pixel (c-fos mRNA; HepG2 cells, PMA 1 nM)	Mean average fluorescence signal intensity/bead pixel (c-fos mRNA; HepG2 cells, PMA 10 nM)	Mean average fluorescence signal intensity/bead pixel (c-fos mRNA; HepG2 cells, PMA 100 nM)	Mean average fluorescence signal intensity/bead pixel (c-fos mRNA; HepG2 cells, PMA 500 nM)	Mean average fluorescence signal intensity/bead pixel (c-fos mRNA; HepG2 cells, PMA 1000 nM)
Cc1ccc2cc3c(ccc4ccccc43)c3c2c1CC3 [3-MC, 3-methylcholanthrene]	~0.5	0.8									
CCCCCCCCCCCCCC(=O)O[C@@H]1[C@@H](C)[C@@]2(O)[C@@H](C=C(CO)C[C@]3(O)C(=O)C(C)=C[C@@H]23)[C@@H]2C(C)(C)[C@]12OC(C)=O [PMA, Phorbol 12-myristate 13-acetate]			42	3.03*10^6 copies mRNA/well	0.484	1.51	1.53	4.84	14.29	24.44	30.03
